Experimental data: US8703761B2, “Organic compounds” (Novartis AG, priority 2008, dated 2014)

target: human DGAT1 (Homo sapiens (Human), UniProt O75907); test: DGAT1 Inhibition Assay; assay type: biochemical; details: membrane preparation from Sf9 cells overexpressing human (His)6DGAT1; LC/MS/MS readout
Method: The enzyme preparation used in this assay is a membrane preparation from Sf9 cells overexpressing human (His)6DGAT1. During all steps samples were chilled to 4° C. Sf9 cells expressing human (His)6DGAT1 were thawed at room temperature and re-suspended at a 10:1 ratio (mL buffer/g of cells) in 50 mM HEPES, 1× Complete Protease Inhibitor, pH 7.5. The re-suspended pellet was homogenized for 1 min using a Brinkman PT 10/35 homogenizer with a 20 mm generator. Cells were lysed using Avestin Emulsiflex (chilled to 4° C.) at 10000-15000 psi. Lysate was centrifuged at 100,000×g for 1 h at 4° C. Supernatant was removed and pellets were re-suspended in 50 mM HEPES, 1× Complete Protease Inhibitor, pH 7.5 at ⅙ the volume of supernatant. Re-suspended pellets were pooled and homogenized with 10 strokes of a Glas-Col motor driven teflon pestle on setting 70. The protein concentration of the membrane preparation was quantified using BCA protein assay with 1% SDS. The membrane preparation was aliquoted, frozen on dry ice, and stored at −80° C.
For 50 mL, 25 mL of 0.2 M HEPES stock buffer, 0.5 mL of 1 M MgCl2 ([…]), and 24.5 mL of milli-Q H2O are added to the 55 mL Wheaton Potter-Elvehjem homogenizer. Enzyme preparation (0.1 mL) is added to buffer and the mixture is homogenized with 5 strokes on ice using the Glas-Col variable speed homogenizer system on setting 70.
For 50 mL, 0.5 mL 10 mM diolein is added to 9.5 mL of EtOH in a 50 mL Falcon screw cap conical centrifuge tube. Five mL of 10 mM sodium acetate pH 4.5 is added followed by 0.5 mL of 10 mM oleoyl-CoA. Finally, the remaining 4.5 mL of 10 mM sodium acetate pH 4.5 is added followed by 30 mL of milli-Q H20. The solution should be gently agitated by hand to induce mixing. The final concentrations of EtOH and sodium acetate are 20% and 2 mM, respectively.
Dry compounds are dissolved in the appropriate volume of DMSO to a final concentration of 10 mM. A 10-point, 3-fold dose response is used to evaluate compound potency. All dilutions are performed in DMSO in a Greiner 384-well microplate. • 1. 2 μL of compound in DMSO is added to the appropriate wells, 2 μL of DMSO is added to 100% activity and 100% inhibition controls. • 2. 25 μL of enzyme mix is added to all wells and plate(s) are incubated for 10 min at RT. • 3. 10 μL of 20% acetic acid quench is added to 100% inhibition control wells. Plate(s) are vortexed using Troemner multi-tube vortexer (setting 7 for 10 sec). • 4. 25 μL of substrate mix is added to all wells. Plate(s) are vortexed using Troemner multi-tube vortexer (setting 7 for 10 sec). Plate(s) are incubated for 30 min at RT. • 5. 10 μL of 20% acetic acid quench is added to all wells. Plate(s) are vortexed using Troemner multi-tube vortexer (setting 7 for 10 sec). • 6. 50 μL of 1-butanol w/glyceryl tripalmitoleate internal standard is added to all wells. • 7. Plate(s) are sealed with super pierce strong plate sealer using the thermo-sealer. • 8. Plate(s) are vortexed using Troemner multi-tube vortexer (setting 10 for 5 min). • 9. Plate(s) are centrifuged at 162×g (1000 rpm for GH-3.8 rotor) for 5 min using Beckman GS-6R tabletop centrifuge.
Samples were analyzed by LC/MS/MS using a Waters 1525μ LC and Quattro Micro API MS. Where indicated, tripalmitolein was used as an internal standard to control for instrument variation.
Data is converted to % inhibition prior to curve fitting using the following equation: […]

Chain of human DGAT1 (O75907 whole entry): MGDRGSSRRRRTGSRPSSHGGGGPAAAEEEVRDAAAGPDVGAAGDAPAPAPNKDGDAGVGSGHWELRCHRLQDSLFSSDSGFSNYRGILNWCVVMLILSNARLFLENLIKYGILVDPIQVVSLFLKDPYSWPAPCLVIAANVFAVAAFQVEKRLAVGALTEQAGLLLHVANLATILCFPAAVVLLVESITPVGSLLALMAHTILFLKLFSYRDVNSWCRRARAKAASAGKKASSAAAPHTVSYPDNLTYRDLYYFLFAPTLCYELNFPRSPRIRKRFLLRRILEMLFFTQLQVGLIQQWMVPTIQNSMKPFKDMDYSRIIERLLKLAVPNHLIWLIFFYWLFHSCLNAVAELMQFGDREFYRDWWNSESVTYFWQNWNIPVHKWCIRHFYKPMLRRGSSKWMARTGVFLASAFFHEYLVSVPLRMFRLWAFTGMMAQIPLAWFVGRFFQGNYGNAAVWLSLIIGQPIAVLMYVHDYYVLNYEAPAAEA

IC50 | Compound
0.622 µM | CC(C)(NC(=O)c1cccnc1)C(=O)Nc1nc(-c2ccc(F)cc2)c(Oc2ccc(F)cc2)s1 [Example 6-9, N-{1-[5-(4-Fluoro-phenoxy)-4-(4-fluoro-phenyl)-thiazol-2-ylcarbamoyl]-1-methyl-ethyl}-nicotinamide]
0.24 µM | Cc1ccc(-c2cc(NC(=O)[C@@H]3CCCN3C(=O)OC(C)(C)C)nc(-c3ccccc3)c2)cc1 [Example 8-2, (S)-2-(6-Phenyl-4-p-tolyl-pyridin-2-ylcarbamoyl)-pyrrolidine-1-carboxylic acid tert-butyl ester]
1.18 µM | CC1(C(=O)NC(C)(C)C(=O)Nc2nc(C(F)(F)F)c(C(=O)c3ccc(F)cc3)s2)CC1 [Example 12-3, 1-Methyl-cyclopropanecarboxylic acid {1-[5-(4-fluoro-benzoyl)-4-trifluoromethyl-thiazol-2-ylcarbamoyl]-1-methyl-ethyl}-amide]
0.0525 µM | CC(C)(NC(=O)N1CCOCC1)C(=O)Nc1nc(-c2ccc(F)cc2)c(Oc2ccc(F)cc2)s1 [Example 6-2, Morpholine-4-carboxylic acid {1-[5-(4-fluoro-phenoxy)-4-(4-fluoro-phenyl)-thiazol-2-ylcarbamoyl]-1-methyl-ethyl}-amide]
1.75 µM | CC(C)(NC(=O)c1cnco1)C(=O)Nc1nc(-c2ccc(F)cc2)n(Cc2ccccc2)n1 [Example 14-24, Oxazole-5-carboxylic acid {1-[1-benzyl-5-(4-fluoro-phenyl)-1H-[1,2,4]triazol-3-ylcarbamoyl]-1-methyl-ethyl}-amide]
0.225 µM | CC(C)(NC(=O)c1ccccn1)C(=O)Nc1nc(-c2ccc(F)cc2)n(Cc2ccccc2)n1 [Example 14-4, Pyridine-2-carboxylic acid {1-[1-benzyl-5-(4-fluoro-phenyl)-1H-[1,2,4]triazol-3-ylcarbamoyl]-1-methyl-ethyl}-amide]
2.3 µM | CN1CCC[C@H]1C(=O)NC(C)(C)C(=O)Nc1nc(-c2ccc(F)cc2)n(Cc2ccccc2)n1 [Example 14-3, (S)-1-Methyl-pyrrolidine-2-carboxylic acid {1-[1-benzyl-5-(4-fluoro-phenyl)-1H-[1,2,4]triazol-3-ylcarbamoyl]-1-methyl-ethyl}-amide]
2.08 µM | CC(C)(NC(=O)N1CCCOCC1)C(=O)Nc1nc(C(F)(F)F)c(C(=O)c2ccc(F)cc2)s1 [Example 12-4, [1,4]Oxazepane-4-carboxylic acid {1-[5-(4-fluoro-benzoyl)-4-trifluoromethyl-thiazol-2-ylcarbamoyl]-1-methyl-ethyl}-amide]
6.13 µM | Cc1cc(C(=O)NC(C)(C)C(=O)Nc2nc(-c3ccc(F)cc3)n(Cc3ccccc3)n2)no1 [Example 14-28, 5-Methyl-isoxazole-3-carboxylic acid {1-[1-benzyl-5-(4-fluoro-phenyl)-1H-[1,2,4]triazol-3-ylcarbamoyl]-1-methyl-ethyl}-amide]
0.91 µM | CC(C)(NC(=O)c1ccc(OC(F)(F)F)cc1)C(=O)Nc1nc(-c2ccc(F)cc2)c(Oc2ccc(F)cc2)s1 [Example 6-1, N-{1-[5-(4-Fluoro-phenoxy)-4-(4-fluoro-phenyl)-thiazol-2-ylcarbamoyl]-1-methyl-ethyl}-4-trifluoromethoxybenzamide]
0.0545 µM | O=C(Nc1cc(-c2ccccc2)c2ccccc2n1)C1CCCN1C(=O)CC1CCCC1 (stereo in doubt) [Example 8-1, (S)-1-(2-Cyclopentyl-acetyl)-pyrrolidine-2-carboxylic acid (4-phenyl-quinolin-2-yl)-amide]
0.197 µM | CC(C)(NC(=O)c1cncs1)C(=O)Nc1nc(-c2ccc(F)cc2)c(Oc2ccc(F)cc2)s1 [Example 6-14, Thiazole-5-carboxylic acid {1-[5-(4-fluoro-phenoxy)-4-(4-fluoro-phenyl)-thiazol-2-ylcarbamoyl]-1-methyl-ethyl}-amide]

More lines, now with the values behind:

Compound | IC50
CC(C)(NS(=O)(=O)c1ccc(F)cc1)C(=O)Nc1nc(-c2ccccc2)c(Cc2ccccc2)s1 [Example 1-6, N-(5-Benzyl-4-phenyl-thiazol-2-yl)-2-(4-fluoro-benzenesulfonylamino)-2-methyl-propionamide] | 0.241 µM
O=C(Nc1nc(-c2ccccc2)c(Cc2ccccc2)s1)[C@@H]1CCCN1C(=O)Nc1ccc(C(F)(F)F)cc1F [Example 4-9, (S)-Pyrrolidine-1,2-dicarboxylic acid 2-[(5-benzyl-4-phenyl-thiazol-2-yl)-amide] 1-[(2-fluoro-4-trifluoromethyl-phenyl)-amide]] | 0.473 µM
CCOc1ccc(C(=O)NC(C)(C)C(=O)Nc2nc(-c3ccccc3)c(Cc3ccccc3)s2)cc1OCC [Example 1-1, N-[1-(5-Benzyl-4-phenyl-thiazol-2-ylcarbamoyl)-1-methyl-ethyl]-3,4-diethoxy-benzamide] | 0.0605 µM
Cc1ccccc1NC(=O)N1CCCC1C(=O)Nc1nc(-c2ccccc2)c(Cc2ccccc2)s1 (stereo not shown) [Example 4-2, Pyrrolidine-1,2-dicarboxylic acid 2-[(5-benzyl-4-phenyl-thiazol-2-yl)-amide] 1-o-tolylamide] | 0.232 µM
CC(C)(NC(=O)c1ccccn1)C(=O)Nc1nc(-c2ccccc2)c(Cc2ccccc2)s1 [Example 1-29, Pyridine-2-carboxylic acid [1-(5-benzyl-4-phenyl-thiazol-2-ylcarbamoyl)-1-methyl-ethyl]-amide] | 0.0035 µM
COc1ccccc1C(=O)NC(C)(C)C(=O)Nc1nc(-c2ccccc2)c(Cc2ccccc2)s1 [Example 1-8, N-[1-(5-Benzyl-4-phenyl-thiazol-2-ylcarbamoyl)-1-methyl-ethyl]-2-methoxy-benzamide] | 0.0085 µM
CC(C)(NC(=O)c1ccc2occc2c1)C(=O)Nc1nc(-c2ccccc2)c(Cc2ccccc2)s1 [Example 1-28, Benzofuran-5-carboxylic acid [1-(5-benzyl-4-phenyl-thiazol-2-ylcarbamoyl)-1-methyl-ethyl]-amide] | 0.011 µM
